Results on four compounds are retold here after patent US6989384B2, “Antipicornaviral compounds and compositions, their pharmaceutical uses, and materials for their synthesis” (Agouron Pharmaceuticals, Inc., priority 2000, dated 2006).

Where two headings read alike, the source gives them in different places.

A word on the CC50: it is the concentration that lowers cell viability or growth by half. The EC50 is the concentration that produces a half-maximal response.

For one data set, the system named is H1-HeLa cells. In words: Cytotoxicity in mock-infected H1-HeLa cells (XTT). The data set is classed as cell-based. The settings on record: two days, read-out: Toxicity CC50. The procedure:
(§1) In this cell protection assay, the ability of compounds to protect cells against HRV infection was measured by the XTT dye reduction method, which is described in Weislow et al., J. Natl. Cancer Inst. 1989, vol. 81, 577–586.
(§2) H1-HeLa cells were infected with HRV-14 at a multiplicity of infection (m.o.i.) of 0.13 (virus particles/cell) or mock-infected with medium only. Infected or mock-infected cells were resuspended at 8×10^5 cells per mL, and incubated with appropriate concentrations of the compounds to be tested. Two days later, XTT/PMS was added to test plates and the amount of formazan produced was quantified spectrophotometrically at 450/650 nm. The EC50 value was calculated as the concentration of compound that increased the percentage of formazan production in compound-treated, virus-infected cells to 50% of that produced by compound-free, mock-infected cells. The 50% cytotoxic dose (CC50) was calculated as the concentration of compound that decreased the percentage of formazan produced in compound-treated, mock-infected cells to 50% of that produced by compound-free, mock-infected cells.
(§3) All strains of human rhinovirus (HRV) for use in this assay were purchased from American Type Culture Collection (ATCC), except for HRV serotype-14 (produced from the infectious cDNA clone constructed by Dr. Robert Rueckert, Institute for Molecular Virology, University of Wisconsin, Madison, Wis.). HRV stocks were propagated and viral assays were performed in H1-HeLa cells (ATCC). Cells were grown in minimal essential medium with 10% fetal bovine serum, available from Life Technologies (Gaithersburg, Md.).

In the next data set the test system is HRV-14. Put plainly: Antirhinoviral H1-HeLa cell culture assay (cell protection, XTT), HRV-14. The data set is classed as cell-based, human rhinovirus. The settings on record: read-out: Cell Protection EC50. The procedure:
as §1, §2, §3
(§4) The compounds were tested against control compounds WIN 51711, WIN 52084, and WIN 54954 (obtained from Sterling-Winthrop Pharmaceuticals), Pirodavir (obtained from Janssen Pharmaceuticals), and Pleconaril (prepared according to the method described in Diana et al., J. Med. Chem 1995, vol. 38, 1355). Antiviral data obtained for the test compounds are shown in the Table, where all data are for HRV serotype-14 unless otherwise noted in parentheses.
(Tetrazolium dyes change colour on reduction, which living cells bring about.)

Data set [1] in a line: Cytotoxicity in mock-infected H1-HeLa cells (XTT). The note with it: human, two days, read-out: Toxicity CC50. It is filed as cell-based. The procedure:
as §1, §2, §3

The target of data set [2] is T1, rhinovirus 3C protease (HRV-2) (Human rhinovirus 2, UniProt P04936).
T1 construct: Recombinant rhinovirus 3C proteases; made in house
In words: Inhibition of rhinovirus 3C protease activity (FRET assay), HRV-2. It is filed as biochemical. The note with it: read-out: Protease Inhibition kobs/I. The procedure: Stock solutions (50 mM, in DMSO) of various compounds were prepared; dilutions were in the same solvent. Recombinant rhinovirus 3C proteases (see Birch et al., “Purification of recombinant human rhinovirus 14 3C protease expressed in Escherichia coli,” Protein Expr. Pur. 1995, 6(5), 609–618) from serotypes 14, 16, and 2 were prepared by the following standard chromatographic procedures: (1) ion exchange using Q Sepharose Fast Flow from Pharmacia; (2) affinity chromatography using Affi-Gel Blue from Biorad; and (3) sizing using Sephadex G-100 from Pharmacia. Each assay sample contained 2% DMSO, 50 mM tris pH 7.6, 1 mM EDTA, a test compound at the indicated concentration, approximately 1 μM substrate, and 50–100 nM protease. The kobs/I values were obtained from reactions initiated by addition of enzyme rather than substrate. RVP activity was measured in the fluorescence resonance energy transfer assay. The substrate was (N-terminal) DABCYL-(Gly-Arg-Ala-Val-Phe-Gln-Gly-Pro-Val-Gly)-EDANS. In the uncleaved peptide, the EDANS fluorescence was quenched by the proximal DABCYL group. When the peptide was cleaved, the quenching was relieved, and activity was measured as an increase in fluorescence signal. In the Table, unless otherwise indicated, all data are for rhinovirus 3C protease from HRV serotype-14 (produced from the infectious cDNA clone constructed by Dr. Robert Rueckert, Institute for Molecular Virology, University of Wisconsin, Madison, Wis.). The data in the column designated kobs/[I] were measured from progress curves in enzyme start experiments.

Data set [3] has as its target T2, rhinovirus 3C protease from HRV serotype-14 (Human rhinovirus 14, UniProt P03303).
T2 construct: Recombinant rhinovirus 3C proteases; made in house
Put plainly: Inhibition of rhinovirus 3C protease activity (FRET assay), HRV-14. It is filed as biochemical. The settings on record: read-out: Protease Inhibition kobs/I. In outline:
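Recombinant 3C protease (50–100 nM) was assayed in 50 mM tris pH 7.6, 1 mM EDTA, 2% DMSO, with about 1 μM DABCYL-GRAVFQGPVG-EDANS FRET substrate. Cleavage was followed as the rise in fluorescence. kobs/[I] was derived from progress curves of enzyme-initiated reactions.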

A further data set deals with HRV-1A. Put plainly: Antirhinoviral H1-HeLa cell culture assay (cell protection, XTT), HRV-1A. The note with it: Rhinovirus A, HRV1A, 48 h, H1-HeLa cells, two days. It is filed as cell-based, human rhinovirus. The procedure: as §1, §2, §3, §4
In data set [4] the target is T3, rhinovirus 3C protease (HRV-16) (Human rhinovirus 16, UniProt Q82122).
T3 construct: Recombinant rhinovirus 3C proteases; made in house
In words: Inhibition of rhinovirus 3C protease activity (FRET assay), HRV-16. The data set is classed as biochemical. The settings on record: HRV-16 3C protease; progress curves, enzyme start; read-out: Protease Inhibition kobs/I. The procedure: Stock solutions (50 mM, in DMSO) of various compounds were prepared; dilutions were in the same solvent. Recombinant rhinovirus 3C proteases (see Birch et al., “Purification of recombinant human rhinovirus 14 3C protease expressed in Escherichia coli,” Protein Expr. Pur. 1995, 6(5), 609–618) from serotypes 14, 16, and 2 were prepared by the following standard chromatographic procedures: (1) ion exchange using Q Sepharose Fast Flow from Pharmacia; (2) affinity chromatography using Affi-Gel Blue from Biorad; and (3) sizing using Sephadex G-100 from Pharmacia. Each assay sample contained 2% DMSO, 50 mM tris pH 7.6, 1 mM EDTA, a test compound at the indicated concentration, approximately 1 μM substrate, and 50–100 nM protease. The kobs/I values were obtained from reactions initiated by addition of enzyme rather than substrate. RVP activity was measured in the fluorescence resonance energy transfer assay. The substrate was (N-terminal) DABCYL-(Gly-Arg-Ala-Val-Phe-Gln-Gly-Pro-Val-Gly)-EDANS. In the uncleaved peptide, the EDANS fluorescence was quenched by the proximal DABCYL group. When the peptide was cleaved, the quenching was relieved, and activity was measured as an increase in fluorescence signal. […] The data in the column designated kobs/[I] were measured from progress curves in enzyme start experiments.

The test system of a further data set is HRV-2. In words: Antirhinoviral H1-HeLa cell culture assay (cell protection, XTT), HRV-2. The data set is classed as cell-based, human rhinovirus. The settings on record: Rhinovirus A, HRV2, 48 h, HRV-2, H1-HeLa cells, two days. The procedure: as §1, §2, §3, §4
Data set [5] addresses T4, rhinovirus 3C protease (HRV-89) (Human rhinovirus A serotype 89, UniProt P07210).
T4 construct: Recombinant rhinovirus 3C proteases
Put plainly: Inhibition of rhinovirus 3C protease activity (FRET assay), HRV-89. The note with it: HRV-89 3C protease; progress curves, enzyme start; read-out: Protease Inhibition kobs/I. The data set is classed as biochemical, human rhinovirus 89.

Another data set deals with HRV-10. Put plainly: Antirhinoviral H1-HeLa cell culture assay (cell protection, XTT), HRV-10. The note with it: Human rhinovirus sp., HRV10, 48 h, HRV-10, H1-HeLa cells, two days. The data set is classed as cell-based. The procedure: as §1, §2, §3, §4
The mark [6] stands for this setting: HRV-14, H1-HeLa cells, XTT, two days.

T1 sequence (P04936 1508-1690): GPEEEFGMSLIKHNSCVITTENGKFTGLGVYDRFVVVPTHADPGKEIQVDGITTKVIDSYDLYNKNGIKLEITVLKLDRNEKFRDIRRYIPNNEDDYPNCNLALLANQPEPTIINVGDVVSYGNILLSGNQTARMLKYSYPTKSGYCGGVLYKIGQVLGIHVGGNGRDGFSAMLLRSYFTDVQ
T3 sequence (Q82122 1511-1693): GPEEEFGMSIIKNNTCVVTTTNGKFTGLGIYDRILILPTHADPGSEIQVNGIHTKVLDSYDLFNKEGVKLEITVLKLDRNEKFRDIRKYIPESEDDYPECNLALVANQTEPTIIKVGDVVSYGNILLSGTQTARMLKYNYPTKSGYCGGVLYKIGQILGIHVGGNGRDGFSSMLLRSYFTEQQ
T2 sequence (P03303 1538-1719): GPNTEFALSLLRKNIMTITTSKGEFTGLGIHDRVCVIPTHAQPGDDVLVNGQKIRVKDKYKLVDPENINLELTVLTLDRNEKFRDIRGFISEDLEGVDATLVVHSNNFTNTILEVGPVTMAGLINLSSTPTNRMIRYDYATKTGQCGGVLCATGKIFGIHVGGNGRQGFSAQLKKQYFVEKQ
T4 sequence (P07210 1522-1704): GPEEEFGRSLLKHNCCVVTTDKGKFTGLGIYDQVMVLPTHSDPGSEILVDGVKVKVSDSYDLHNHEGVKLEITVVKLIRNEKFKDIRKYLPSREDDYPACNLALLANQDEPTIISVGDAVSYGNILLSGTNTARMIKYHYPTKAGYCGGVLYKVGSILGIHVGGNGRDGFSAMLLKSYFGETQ

With `Cc1cc(CCCCCCCOc2ccc(C3=N[C@@H](C)CO3)cc2)on1` [WIN 52084, reference compound], the CC50 in the data set with H1-HeLa cells was > 10 µM. Also, the EC50 in the data set on HRV-14 (setting [6]) was 0.07 µM.
For `Cc1cc(CCCCCCCOc2ccc(C3=NCCO3)cc2)on1` [WIN 51711, reference compound], the CC50 in the data set on H1-HeLa cells was > 60 µM. Besides, the EC50 in the data set on HRV-14 (setting [6]) is 0.78 µM.
Regarding `Cc1cc(CCCCCOc2c(Cl)cc(C3=NCCO3)cc2Cl)on1` [WIN 54954, reference compound], the CC50 with H1-HeLa cells is > 63 µM. Further, the EC50 in the data set with HRV-14 (setting [6]) turned out to be 2.13 µM.
Turning to `CCOC(=O)/C=C/[C@H](C[C@@H]1CCNC1=O)NC(=O)C1=Cc2cc(Cl)ccc2OC1` [Compound 44, 4S-[(6-Chloro-2H-chromene-3-carbonyl)-amino]-5-(2-oxo-pyrrolidin-3S-yl)-pent-2-enoic acid ethyl ester], the CC50 at 2 days in data set [1] was > 100 µM. For the same compound, the kinact/KI was determined as 385 M⁻¹ s⁻¹ in data set [2], 19700 M⁻¹ s⁻¹ in data set [3], 2200 M⁻¹ s⁻¹ in [4] and 800 M⁻¹ s⁻¹ in [5]. For the same compound, the EC50 in the data set on HRV-1A is 5.1 µM; in the data set with HRV-2, 0.645 µM; in the data set with HRV-10, 0.459 µM; in the data set with HRV-14 (Rhinovirus B, HRV14, H1-HeLa, 48 h) it was 0.16 µM.
